Assays:
Type in all cases: cell-based, human
[1] = tested on: breast cancer panel; experiment: NCI60 screen (SRB), panel mean; conditions: BC panel; one dose 10 µM; 48 h
[2] = tested on: leukemia panel; experiment: NCI60 screen (SRB), panel mean; conditions: one dose 10 µM, 48 h
[3] = tested on: CCRF-CEM (Leukemia); experiment: NCI60 screen (SRB); conditions: one dose 10 µM, 48 h
[4] = tested on: K-562 (Leukemia); experiment: NCI60 screen (SRB); conditions: one dose 10 µM, 48 h
[5] = tested on: RPMI-8226 (Leukemia); experiment: NCI60 screen (SRB); conditions: one dose 10 µM, 48 h
[6] = tested on: HOP-62 (Non-Small Cell Lung Cancer); experiment: NCI60 screen (SRB); conditions: one dose 10 µM, 48 h
[7] = tested on: HOP-92 (Non-Small Cell Lung Cancer); experiment: NCI60 screen (SRB); conditions: one dose 10 µM, 48 h
[8] = tested on: NCI-H23 (Non-Small Cell Lung Cancer); experiment: NCI60 screen (SRB); conditions: one dose 10 µM, 48 h
[9] = tested on: NCI-H322M (Non-Small Cell Lung Cancer); experiment: NCI60 screen (SRB); conditions: one dose 10 µM, 48 h
[10] = tested on: NCI-H522 (Non-Small Cell Lung Cancer); experiment: NCI60 screen (SRB); conditions: one dose 10 µM, 48 h
[11] = tested on: HCT-15 (Colon Cancer); experiment: NCI60 screen (SRB); conditions: one dose 10 µM, 48 h
[12] = tested on: HT29 (Colon Cancer); experiment: NCI60 screen (SRB); conditions: one dose 10 µM, 48 h
[13] = tested on: KM12 (Colon Cancer); experiment: NCI60 screen (SRB); conditions: one dose 10 µM, 48 h
[14] = tested on: SW-620 (Colon Cancer); experiment: NCI60 screen (SRB); conditions: one dose 10 µM, 48 h
[15] = tested on: SF-268 (CNS Cancer); experiment: NCI60 screen (SRB); conditions: one dose 10 µM, 48 h
[16] = tested on: SF-295 (CNS Cancer); experiment: NCI60 screen (SRB); conditions: one dose 10 µM, 48 h
[17] = tested on: SF-539 (CNS Cancer); experiment: NCI60 screen (SRB); conditions: one dose 10 µM, 48 h
[18] = tested on: SNB-75 (CNS Cancer); experiment: NCI60 screen (SRB); conditions: one dose 10 µM, 48 h
[19] = tested on: U251 (CNS Cancer); experiment: NCI60 screen (SRB); conditions: one dose 10 µM, 48 h
[20] = tested on: LOX IMVI (Melanoma); experiment: NCI60 screen (SRB); conditions: one dose 10 µM, 48 h
[21] = tested on: MALME-3M (Melanoma); experiment: NCI60 screen (SRB); conditions: one dose 10 µM, 48 h
[22] = tested on: M14 (Melanoma); experiment: NCI60 screen (SRB); conditions: one dose 10 µM, 48 h
[23] = tested on: MDA-MB-435 (Melanoma); experiment: NCI60 screen (SRB); conditions: one dose 10 µM, 48 h
[24] = tested on: SK-MEL-28 (Melanoma); experiment: NCI60 screen (SRB); conditions: one dose 10 µM, 48 h
[25] = tested on: SK-MEL-5 (Melanoma); experiment: NCI60 screen (SRB); conditions: one dose 10 µM, 48 h
[26] = tested on: UACC-62 (Melanoma); experiment: NCI60 screen (SRB); conditions: one dose 10 µM, 48 h
[27] = tested on: IGROV1 (Ovarian Cancer); experiment: NCI60 screen (SRB); conditions: one dose 10 µM, 48 h
[28] = tested on: OVCAR-3 (Ovarian Cancer); experiment: NCI60 screen (SRB); conditions: one dose 10 µM, 48 h
[29] = tested on: OVCAR-4 (Ovarian Cancer); experiment: NCI60 screen (SRB); conditions: one dose 10 µM, 48 h
[30] = tested on: OVCAR-5 (Ovarian Cancer); experiment: NCI60 screen (SRB); conditions: one dose 10 µM, 48 h
[31] = tested on: OVCAR-8 (Ovarian Cancer); experiment: NCI60 screen (SRB); conditions: one dose 10 µM, 48 h
[32] = tested on: 786-0 (Renal Cancer); experiment: NCI60 screen (SRB); conditions: one dose 10 µM, 48 h
[33] = tested on: A498 (Renal Cancer); experiment: NCI60 screen (SRB); conditions: one dose 10 µM, 48 h
[34] = tested on: ACHN (Renal Cancer); experiment: NCI60 screen (SRB); conditions: one dose 10 µM, 48 h
[35] = tested on: RXF 393 (Renal Cancer); experiment: NCI60 screen (SRB); conditions: one dose 10 µM, 48 h
[36] = tested on: TK-10 (Renal Cancer); experiment: NCI60 screen (SRB); conditions: one dose 10 µM, 48 h
[37] = tested on: UO-31 (Renal Cancer); experiment: NCI60 screen (SRB); conditions: one dose 10 µM, 48 h
[38] = tested on: PC-3 (Prostate Cancer); experiment: NCI60 screen (SRB); conditions: one dose 10 µM, 48 h
[39] = tested on: MCF7 (Breast Cancer); experiment: NCI60 screen (SRB); conditions: one dose 10 µM, 48 h
[40] = tested on: MDA-MB-231/ATCC (Breast Cancer); experiment: NCI60 screen (SRB); conditions: one dose 10 µM, 48 h
[41] = tested on: BT-549 (Breast Cancer); experiment: NCI60 screen (SRB); conditions: one dose 10 µM, 48 h

COc1cc(/C=C/C(/C=C/c2cc(OC)c(OC)c(OC)c2)n2ccnc2)cc(OC)c1OC [Compound 30, 1-((1E,4E)-1,5-bis(3,4,5-trimethoxyphenyl)penta-1,4-dien-3-yl)-1H-imidazole]
mean growth percentage [1]: 71.5% | mean growth percentage [2]: 60.5% | growth percent [3]: 65.10% | growth percent [4]: 61.41% | growth percent [5]: 60.48% | growth percent [6]: 84.91% | growth percent [7]: 56.24% | growth percent [8]: 81.16% | growth percent [9]: 96.68% | growth percent [10]: 64.75% | growth percent [11]: 77.23% | growth percent [12]: 80.30% | growth percent [13]: 82.35% | growth percent [14]: 88.00% | growth percent [15]: 91.93% | growth percent [16]: 95.73% | growth percent [17]: 93.55% | growth percent [18]: 54.99% | growth percent [19]: 81.64% | growth percent [20]: 85.14% | growth percent [21]: 93.80% | growth percent [22]: 82.03% | growth percent [23]: 45.63% | growth percent [24]: 100.52% | growth percent [25]: 62.09% | growth percent [26]: 68.23% | growth percent [27]: 78.02% | growth percent [28]: 83.41% | growth percent [29]: 92.69% | growth percent [30]: 129.83% | growth percent [31]: 83.74% | growth percent [32]: 95.20% | growth percent [33]: 104.55% | growth percent [34]: 99.92% | growth percent [35]: 88.15% | growth percent [36]: 115.50% | growth percent [37]: 66.56% | growth percent [38]: 58.09% | growth percent [39]: 57.42% | growth percent [40]: 76.21% | growth percent [41]: 83.42%
